Laboratory results reported in patent publication US4027039A (priority 1975, dated 1977).

Tested on: Influenza, Ann Arbor virus
Assay: Influenza Ann Arbor in mice, oral; schedule by table; late read day 5 (Tables 15, 25, 29, 30), 6 (18, 20, 22, 23, 26, 27, 28, 54), 7 (14, 19, 21, 24, 53, 56), 8 (16, 17, 51), 9 (11, 55)
Assay type: in vivo, mouse
Conditions: for Toxic: oral, mouse

Structure (SMILES) | No. animals surviving after 5-7 days (total dose 30 pg) | Survivors (total dose 30 pg) | No. animals surviving after 5-7 days (total dose 300 pg) | Survivors (total dose 300 pg) | No. animals surviving after 5-7 days (total dose 3 ng) | Survivors (total dose 3 ng) | No. animals surviving after 5-7 days (total dose 30 ng) | No. animals surviving after 5-7 days (total dose 300 ng) | Survivors (total dose 300 ng) | No. animals surviving after 5-7 days (total dose 3 μg) | Survivors (total dose 3 μg) | Survivors (total dose 30 μg) | No. animals surviving after 5-7 days (total dose 300 μg) | Survivors (total dose 300 μg) | No. animals surviving after 5-7 days (total dose 3 mg) | Survivors (total dose 3 mg) | Survivors (total dose 30 ng) | No. animals surviving after 5-7 days (total dose 30 μg) | Toxic (total dose 3 mg) | also measured
Cc1ccccc1NC(=S)NN=C1CCCC1 [cyclopentanone, 3-thio-4-o-tolyl-semicarbazone] | 6 | 0 | 9 | 0 | 9 | 0 | 9 | 6 | 0 | 6 | 0 | 0 | 9 | 0 | 8 | 0 | – | – | – | –
CN(C)N [1,1-dimethylhydrazine] | 5 | 0 | 3 | 0 | 3 | 1 | 2 | 3 | 0 | 2 | 0 | 1 | 3 | 0 | 2 | 0 | 0 | 1 | – | –
CNN [Methylhydrazine, methylhydrazine] | 2 | 1 | 3 | 0 | 3 | 1 | 4 | 1 | 0 | 3 | 0 | 1 | 1 | 0 | – | – | 1 | 3 | Toxic | –
CCCC(C)=NNC(N)=S [2-pentanone, thiosemicarbazone] | 2 | 0 | 2 | 0 | 2 | 0 | 2 | 1 | 0 | 1 | 0 | 1 | 0 | 0 | – | – | 0 | 1 | – | No. animals surviving after 7 days (total dose 15 ng): 3; Survivors (total dose 15 ng): 0; No. animals surviving after 7 days (total dose 22.5 ng): 0; Survivors (total dose 22.5 ng): 0; No. animals surviving after 7 days (total dose 75 ng): 1; Survivors (total dose 75 ng): 0; No. animals surviving after 7 days (total dose 150 ng): 0; Survivors (total dose 150 ng): 0; No. animals surviving after 7 days (total dose 225 ng): 3; Survivors (total dose 225 ng): 0; No. animals surviving after 7 days (total dose 750 ng): 2; Survivors (total dose 750 ng): 0; No. animals surviving after 7 days (total dose 1.5 μg): 2; Survivors (total dose 1.5 μg): 0; No. animals surviving after 7 days (total dose 2.25 μg): 1; Survivors (total dose 2.25 μg): 1
NC(=S)NN=C1Cc2ccccc2C1 [2-indanone, thiosemicarbazone] | 8 | 1 | 8 | 0 | 5 | 0 | 9 | 8 | 1 | 8 | 1 | 0 | 6 | 0 | – | – | 0 | 8 | Toxic | –
NC(N)=NN=Cc1c(Cl)cccc1Cl [[(2,6-dichlorobenzylidine)amino]guanidine acetate] | 4 | 0 | 2 | 1 | 4 | 0 | 1 | 1 | 0 | 2 | 0 | 0 | 1 | 0 | – | – | 0 | 3 | Toxic | –
CCC(CC)=NNC(N)=S [3-pentanone, thiosemicarbazone] | 2 | 0 | 1 | 0 | 3 | 0 | 0 | 3 | 0 | 6 | 1 | 0 | 4 | 0 | – | – | 0 | 7 | – | No. animals surviving after 7 days (total dose 12 μg): 1; Survivors (total dose 12 μg): 0; No. animals surviving after 7 days (total dose 18 μg): 1; Survivors (total dose 18 μg): 1; No. animals surviving after 7 days (total dose 24 μg): 0; Survivors (total dose 24 μg): 0; No. animals surviving after 7 days (total dose 60 μg): 1; Survivors (total dose 60 μg): 0; No. animals surviving after 7 days (total dose 90 μg): 3; Survivors (total dose 90 μg): 0; No. animals surviving after 7 days (total dose 120 μg): 1; Survivors (total dose 120 μg): 1; No. animals surviving after 7 days (total dose 150 μg): 2; Survivors (total dose 150 μg): 1
CCC(C)=NNC(=N)N.O=[N+]([O-])O [1-(sec-butylideneamino)guanidine nitrate, 1-(sec-butylideneamino)guanidine, nitrate] | – | – | – | – | 0 | 0 | 1 | 3 | 2 | 0 | 0 | 2 | 0 | 0 | – | – | 0 | 2 | – | –
C=CCNC(=S)NN=C1Cc2ccccc2C1 [2-Indanone, 4-allylthiosemicarbazone] | 4 | 0 | 7 | 0 | 4 | 0 | 6 | 6 | 0 | 2 | 0 | 0 | 2 | 0 | 4 | 1 | 0 | 6 | – | –
CC(C)=NNC(N)=S [acetone, thiosemicarbazone] | 3 | 1 | 2 | 0 | 2 | 0 | 2 | 3 | 0 | 5 | 0 | 0 | 3 | 0 | – | – | 0 | 2 | – | –
